In US20160137746A1, “METHODS FOR TREATING HIGH CARDIOVASCULAR RISK PATIENTS WITH HYPERCHOLESTEROLEMIA” (Sanofi Biotechnology, priority 2014, published 2016):
Where “and” joins values, the source holds several entries; their conditions need not be identical. Equal values may be shown once.

Legend:
[1] = test system: high cardiovascular risk patients with hypercholesterolemia; conditions: in vivo
Procedure: Safety assessments during both studies were as follows. Safety was assessed through adverse event (AE) reporting (including adjudicated cardiovascular events), laboratory analyses, and vital signs measurement. Since the LDL-C-lowering effects of PCSK9 inhibition on top of a statin are unknown, a number of AEs were defined as being of special interest and were monitored, including alanine aminotransferase abnormalities, allergic events, hemolytic anemia, pregnancy, overdose with study drug, neurologic events, ophthalmic events, and local injection site reactions.
Safety Analyses were as follows. AEs (including adjudicated cardiovascular events), laboratory parameters, and vital signs were reported descriptively, based on the safety population (all randomized patients who received at least 1 dose or partial dose of study treatment). The safety analysis focused on the treatment-emergent AE period defined as the time from the first double-blind dose to the last double-blind dose of the investigational product +70 days (10 weeks).
(§1) The safety population included all randomized patients who received at least one dose or part of a dose of the double-blind IMP.
Safety analyses were descriptive, performed on the safety population according to treatment actually received. For analysis of TEAE and PCSA, the safety analysis focused on the TEAE period defined as the time from the first dose of double-blind IMP administration (capsule or injection, whichever comes first) up to 70 days after the last double-blind injection.

[2] = test system: high cardiovascular risk patients with hypercholesterolemia; assay: ODYSSEY COMBO II: lipid efficacy of alirocumab vs ezetimibe, add-on to maximally tolerated statin; type: in vivo, human; conditions: for Calculated LDL-C percent change from baseline, LS mean (SE): ITT population, MMRM, alirocumab 75 Q2W/Up150 Q2W, ezetimibe 10
Source text: Each of the COMBO studies was randomized, double-blinded, and placebo-controlled.
The primary efficacy endpoint for each study was the difference between treatment arms in the percent change in LDL-C from baseline to Week 24.
Apo, apolipoprotein; HDL-C, high-density lipoprotein cholesterol; ITT, intent-to-treat; LDL-C, low-density lipoprotein cholesterol; Lp(a), lipoprotein (a); TG, triglycerides.
COMBO II was a Phase 3, randomized, double-blind, active-controlled, parallel-group, multinational 104-week study. The study enrolled high-risk patients with uncontrolled hypercholesterolemia on stable, maximally tolerated daily statin therapy. Unlike COMBO I, with a placebo arm, COMBO II incorporated an active-treatment arm (ezetimibe) with double-dummy design (FIG. 1B) and patients were not allowed to receive any other lipid lowering therapies besides statin and their randomized treatment.
After randomization, patients entered a double-blind, double-dummy treatment period of 104 weeks.
Primary analyses of efficacy endpoints were conducted using an ITT approach (based on the ITT population defined above), including all lipid data, regardless of whether the patient was continuing therapy or not. This corresponds to ITT estimands, defined for primary and key secondary endpoints. In addition, analyses were also conducted using an on-treatment approach (based on the mITT population defined above), including lipid data collected during the efficacy treatment period. This corresponds to on-treatment estimands of key secondary endpoints.
With regards to the primary efficacy analysis (ITT approach), the percent change in calculated LDL-C from baseline to Week 24 was analyzed using a mixed-effect model with repeated measures (MMRM) approach.

[3] = test system: high cardiovascular risk patients with hypercholesterolemia; conditions: in vivo; remark: listed apart in the source
Procedure: Safety was assessed through adverse event (AE) reporting (including adjudicated cardiovascular events), laboratory analyses, and vital signs measurement. Since the LDL-C-lowering effects of PCSK9 inhibition on top of a statin are unknown, a number of AEs were defined as being of special interest and were monitored, including alanine aminotransferase abnormalities, allergic events, hemolytic anemia, pregnancy, overdose with study drug, neurologic events, ophthalmic events, and local injection site reactions. AEs were determined to be of special interest based on review of previous clinical trials, correspondence with regulatory authorities and the Data Monitoring Committee, the use of a monoclonal antibody in this study, and the route of drug administration.
AEs (including adjudicated cardiovascular events), laboratory parameters, and vital signs were reported descriptively, based on the safety population (all randomized patients who received at least 1 dose or partial dose of study treatment). The safety analysis focused on the treatment-emergent AE period defined as the time from the first double-blind dose to the last double-blind dose of the investigational product +70 days (10 weeks).
as §1
Safety analyses were descriptive, performed on the safety population according to treatment actually received. For analysis of TEAE and PCSA, the safety analysis focused on the TEAE period defined as the time from the first dose of double-blind IMP up to 70 days after the last double-blind injection.

[4] = ITT, Week 24, listed as alirocumab

Alirocumab: human anti-PCSK9 antibody; HCVR SEQ ID NO:1, LCVR SEQ ID NO:6; CDRs SEQ ID NOs 2/3/4/7/8/10
TEAE preferred term: Upper respiratory tract infection [1]: 31 (6.5) | TEAE system organ class: Infections and infestations [1]: 130 (27.1) | Achieved LDL-C, median ([2]; 24 weeks, FIG. 7): 40 mg/dL | Patients with automatic up-titration at Week 12 from 75 mg Q2W to 150 mg Q2W (Week 8 LDL-C ≧70 mg/dL) ([2]; 82 of 446 patients with at least one injection after Week 12): 18.4% and 18% | Calculated LDL-C percent change, LS mean difference (SE) vs ezetimibe ([2]; ITT, Week 24): −29.8 (2.3) % | Calculated LDL-C, LS mean (SE) percent change from baseline ([2]; ITT, Week 24): −50.6 (1.4) % | Fasting TGs, LS mean percent change from baseline ([2]; ITT, Week 24): −13.0% | Calculated LDL-C percent change, LS mean difference (SE) vs ezetimibe [2, 4]: −29.8% | Calculated LDL-C, LS mean (SE) percent change from baseline [2, 4]: −50.6% | Fasting TGs percent change, LS mean difference vs ezetimibe ([2]; ITT, Week 24, p=0.9117): −0.3% | Calculated LDL-C, LS mean percent change from baseline ([2]; ITT, Week 52, listed as alirocumab): −49.5% and −50% | Apolipoprotein A-1, LS mean difference vs. ezetimibe ([2]; ITT, time point not given): vs. ezetimibe of 6.3% | Apolipoprotein A-1, LS mean vs. baseline ([2]; ITT, time point not given): vs. baseline of +5.0 | Calculated LDL-C percent change, LS mean difference vs ezetimibe ([2]; On-treatment, Week 24): −30.6% | Calculated LDL-C percent change from baseline, LS mean (SE) ([2]; Week 4): −54.7 (1.1) % | Calculated LDL-C percent change from baseline, LS mean (SE) ([2]; Week 8): −54.3 (1.2) % | Apo-B - Percent change from baseline to Week 12, LS mean difference vs. ezetimibe ([2]; Week 12, ITT): vs. ezetimibe of −22.5% | Apo-B - Percent change from baseline to Week 12, LS mean vs. baseline ([2]; Week 12, ITT): vs. baseline of −39.7 | Calculated LDL-C - Percent change from baseline to Week 12, LS mean difference vs. ezetimibe ([2]; Week 12, ITT): vs. ezetimibe of −29.4% | Non-HDL-C - Percent change from baseline to Week 12, LS mean difference vs. ezetimibe ([2]; Week 12, ITT): vs. ezetimibe of −22% | Non-HDL-C - Percent change from baseline to Week 12, LS mean vs. baseline ([2]; Week 12, ITT): vs. baseline of −42.6 | Total-C - Percent change from baseline to Week 12, LS mean difference vs. ezetimibe ([2]; Week 12, ITT): vs. ezetimibe of −14.3% | Total-C - Percent change from baseline to Week 12, LS mean vs. baseline ([2]; Week 12, ITT): vs. baseline of −29.4 | Calculated LDL-C - Percent change from baseline to Week 12, LS mean difference vs. ezetimibe ([2]; Week 12, On-treatment analysis): vs. ezetimibe of −29.7% | Calculated LDL-C percent change from baseline, LS mean (SE) ([2]; Week 16): −56.4 (1.3) % | Apo B reduction compared with ezetimibe ([2]; Week 24): 22.4% | Fasting TGs reduced from baseline ([2]; Week 24): 13.5% | HDL-C increase compared with ezetimibe ([2]; Week 24): 8.1% | Lp(a) reduction compared with ezetimibe ([2]; Week 24): 21.7% | Mean achieved LDL-C ([2]; Week 24): 51.6 (1.4) mg/dL | Non-HDL-C reduction compared with ezetimibe ([2]; Week 24): 22.9% | Apo-B - Percent change from baseline to Week 24, LS mean vs. baseline ([2]; Week 24, ITT): vs. baseline of −40.7 | HDL-C - Percent change from baseline to Week 24, LS mean difference vs. ezetimibe ([2]; Week 24, ITT): vs. ezetimibe of 8.1% | HDL-C - Percent change from baseline to Week 24, LS mean vs. baseline ([2]; Week 24, ITT): vs. baseline of- +8.6 | Lp(a) - Percent change from baseline to Week 24, combined estimate for adjusted mean difference vs. ezetimibe ([2]; Week 24, ITT): ezetimibe of −21.7% | Lp(a) - Percent change from baseline to Week 24, mean vs. baseline ([2]; Week 24, ITT): vs. baseline of −27.8 | Non-HDL-C - Percent change from baseline to Week 24, LS mean difference vs. ezetimibe ([2]; Week 24, ITT): vs. ezetimibe of−22.9% | Non-HDL-C - Percent change from baseline to Week 24, LS mean vs. baseline ([2]; Week 24, ITT): vs. baseline of −42.1 | Total-C - Percent change from baseline to Week 24, LS mean difference vs. ezetimibe ([2]; Week 24, ITT): vs. ezetimibe of −14.7% | Calculated LDL-C percent change from baseline, LS mean (SE) ([2]; Week 24): −50.6 (1.4) % | Fasting TGs - Percent change from baseline to Week 24, combined estimate for adjusted mean difference vs. ezetimibe ([2]; Week 24, ITT, not statistically significant (p 0.9117)): ezetimibe of −0.3% | HDL-C percent change from baseline to week 24 ([2]; Week 24, on-treatment analysis): 9.0 (0.8) | HDL-C percent change from baseline to week 24, LS mean difference (SE) alirocumab vs ezetimibe ([2]; Week 24, on-treatment analysis): 8.2 (1.4) % | Lipoprotein(a) percent change from baseline to week 24 ([2]; Week 24, on-treatment analysis): −28.1 (1.4) | Lipoprotein(a) percent change from baseline to week 24, LS mean difference (SE) alirocumab vs ezetimibe ([2]; Week 24, on-treatment analysis): −22.5 (2.4) % | Total cholesterol percent change from baseline to week 24 ([2]; Week 24, on-treatment analysis): −30.4 (0.9) | Total cholesterol percent change from baseline to week 24, LS mean difference (SE) alirocumab vs ezetimibe ([2]; Week 24, on-treatment analysis): −15.1 (1.5) % | Triglycerides (fasted) percent change from baseline to week 24 ([2]; Week 24, on-treatment analysis): −13.5 (1.4) | Triglycerides (fasted) percent change from baseline to week 24, LS mean difference (SE) alirocumab vs ezetimibe ([2]; Week 24, on-treatment analysis): −0.2 (2.5) % | Calculated LDL-C percent change from baseline, LS mean (SE) ([2]; Week 36): −51.2 (1.4) % | Calculated LDL-C - Percent change from baseline to Week 52, LS mean difference vs. ezetimibe ([2]; Week 52, ITT): vs. ezetimibe of −31.2% | Absolute reduction in LDL-C ([2]; by week 24, dose-increased group): 63.5 mg/dL | Absolute reduction in LDL-C ([2]; by week 24, remainder of the alirocumab group): 56.9 mg/dL | Patients who did not require uptitration to alirocumab 150 mg Q2W ([2]; in vivo): approximately 80% | Additional LDL-C reduction after dose increase at 12 weeks ([2]; patients with dose increased to 150 mg SC Q2W): 12.4% | SOC infections and infestations [3]: 37.2% | Urinary tract infection (TEAE preferred term) [3]: 13 (6.3) No. (%) of patients
